Source: the supplement of paper PMC10307832

Key:
Assay in all cases: relative viability (nuclei count vs DMSO), 5 days (fraction); higher = more cells survive
BAY61-3606 + Trametinib = compound: COC1=C(C=C(C=C1)C2=CC3=NC=CN3C(=N2)NC4=C(C=CC=N4)C(=O)N)OC [BAY61-3606] + CC(=O)Nc1cccc(-n2c(=O)n(C3CC3)c(=O)c3c(Nc4ccc(I)cc4F)n(C)c(=O)c(C)c32)c1 [Trametinib] (partner 0.02 µM)
Summary of the method: (§1)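 Medians of duplicate plates are given as relative viability. That measure is the nuclei count in treated wells divided by the count in vehicle wells. Counts were taken on 4× images of lung cancer cell lines in 1536-well plates, 5 days after pin-tool dosing the day after seeding with one drug alone or a fixed anchor-drug dose plus five library-drug doses (not always all listed) in √10 steps.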

BAY61-3606 + Luminespib = compound: COC1=C(C=C(C=C1)C2=CC3=NC=CN3C(=N2)NC4=C(C=CC=N4)C(=O)N)OC [BAY61-3606] + CCNC(=O)c1noc(-c2cc(C(C)C)c(O)cc2O)c1-c1ccc(CN2CCOCC2)cc1 [Luminespib] (partner 0.01 µM)
Summary of the method: as §1

Doxorubicin + Olaparib = compound: COc1cccc2c1C(=O)c1c(O)c3c(c(O)c1C2=O)C[C@@](O)(C(=O)CO)C[C@@H]3O[C@H]1C[C@H](N)[C@H](O)[C@H](C)O1 [Doxorubicin] + O=C(c1cc(Cc2n[nH]c(=O)c3ccccc23)ccc1F)N1CCN(C(=O)C2CC2)CC1 [Olaparib] (partner 8 µM)
Summary of the method: as §1

Doxorubicin + Pictilisib = compound: COc1cccc2c1C(=O)c1c(O)c3c(c(O)c1C2=O)C[C@@](O)(C(=O)CO)C[C@@H]3O[C@H]1C[C@H](N)[C@H](O)[C@H](C)O1 [Doxorubicin] + CS(=O)(=O)N1CCN(Cc2cc3nc(-c4cccc5[nH]ncc45)nc(N4CCOCC4)c3s2)CC1 [Pictilisib] (partner 1 µM)
Summary of the method: as §1

Row | Cell Line | relative viability (BAY61-3606 + Trametinib; first compound 0.02 µM) | relative viability (BAY61-3606 + Trametinib; first compound 0.06325 µM) | relative viability (BAY61-3606 + Trametinib; first compound 0.2 µM) | relative viability (BAY61-3606 + Trametinib; first compound 0.6325 µM) | relative viability (BAY61-3606 + Trametinib; first compound 2 µM) | relative viability (BAY61-3606 + Luminespib; first compound 0.02 µM) | relative viability (BAY61-3606 + Luminespib; first compound 0.06325 µM) | relative viability (BAY61-3606 + Luminespib; first compound 0.2 µM) | relative viability (BAY61-3606 + Luminespib; first compound 0.6325 µM) | relative viability (BAY61-3606 + Luminespib; first compound 2 µM) | relative viability (Doxorubicin + Olaparib; first compound 0.001 µM) | relative viability (Doxorubicin + Olaparib; first compound 0.003162 µM) | relative viability (Doxorubicin + Olaparib; first compound 0.01 µM) | relative viability (Doxorubicin + Olaparib; first compound 0.03162 µM) | relative viability (Doxorubicin + Olaparib; first compound 0.1 µM) | relative viability (Doxorubicin + Pictilisib; first compound 0.001 µM) | relative viability (Doxorubicin + Pictilisib; first compound 0.003162 µM) | relative viability (Doxorubicin + Pictilisib; first compound 0.01 µM) | relative viability (Doxorubicin + Pictilisib; first compound 0.03162 µM) | relative viability (Doxorubicin + Pictilisib; first compound 0.1 µM)
1 | NCI-H2170 | 0.859 | 0.879 | 0.907 | 0.916 | 0.762 | 0.796 | 0.717 | 0.761 | 0.852 | 0.506 | 0.617 | 0.735 | 0.633 | 0.602 | 0.704 | 0.234 | 0.302 | 0.352 | 0.316 | 0.38
2 | NCI-H2228 | 0.523 | 0.439 | 0.476 | 0.531 | 0.365 | 0.13 | 0.175 | 0.125 | 0.199 | 0.177 | 0.579 | 0.717 | 0.682 | 0.249 | 0.179 | 0.154 | 0.272 | 0.295 | 0.153 | 0.117
3 | NCI-H2347 | 0.287 | 0.332 | 0.285 | 0.296 | 0.244 | 0.373 | 0.362 | 0.386 | 0.658 | 0.412 | 0.6 | 0.562 | 0.544 | 0.516 | 0.55 | 0.563 | 0.598 | 0.803 | 0.615 | 0.635
4 | NCI-H2405 | 0.637 | 0.559 | 0.711 | 0.728 | 0.518 | 0.736 | 0.569 | 0.716 | 0.739 | 0.485 | 0.864 | 0.847 | 0.788 | 0.465 | 0.421 |  | 0.432 | 0.507 | 0.356 | 0.276
5 | NCI-H3122 | 0.235 | 0.24 | 0.246 | 0.242 | 0.249 | 0.121 | 0.0764 | 0.0868 | 0.099 | 0.0933 | 0.535 | 0.616 | 0.58 | 0.62 | 0.634 | 0.507 | 0.62 | 0.566 | 0.527 | 0.611
6 | PC-3 [JPC-3] | 0.772 | 0.668 | 0.741 | 0.726 | 0.654 |  | 0.81 | 0.746 | 0.659 | 0.709 | 1.04 | 0.944 | 1.17 | 0.897 | 0.825 | 0.774 | 0.842 | 0.758 | 0.713 | 0.702
7 | PC-14 | 0.732 | 0.887 | 0.732 | 1.01 | 0.607 | 0.191 |  | 0.171 | 0.173 | 0.129 | 0.239 | 0.257 | 0.203 | 0.0737 | 0.0408 | 0.619 | 0.926 | 0.809 | 0.568 | 0.663
8 | RERF-LC-KJ | 0.868 | 0.846 | 0.901 | 0.866 | 0.676 | 1.22 | 1.45 | 1.2 | 1.3 | 0.849 | 0.906 | 0.784 | 0.55 | 0.3 | 0.261 | 0.531 | 0.54 | 0.595 | 0.501 | 0.48
9 | SK-LU-1 | 0.562 | 0.512 | 0.482 | 0.532 | 0.406 | 0.182 | 0.224 | 0.188 | 0.2 | 0.173 | 0.512 | 0.451 | 0.397 | 0.359 | 0.356 | 0.571 | 0.562 | 0.434 | 0.324 | 0.303
10 | SK-MES-1 | 0.619 | 0.541 | 0.518 | 0.579 | 0.503 | 0.862 | 0.759 | 0.791 | 0.805 | 0.304 | 0.659 | 0.534 | 0.266 | 0.2 | 0.146 | 0.368 | 0.395 | 0.362 | 0.342 | 0.204
11 | SW 1573 | 0.566 | 0.668 | 0.533 | 0.578 | 0.341 | 0.192 | 0.204 | 0.197 | 0.214 | 0.204 | 0.411 | 0.298 | 0.163 | 0.0977 | 0.047 | 0.512 | 0.46 | 0.424 | 0.332 | 0.258
